Source: patent US20240033233A1, “COMPOSITIONS AND METHODS FOR DELIVERING PHARMACEUTICAL AGENTS” (Arizona Board of Regents on Behalf of the University of …, priority 2020, published 2024)
Like-named read-outs stand apart in the source and are kept apart here.

Legend:
p-p38 signal in EpiDerms = experiment: p-p38 signal after topical resatorvid with or without solar simulated light; type: cell-based, human; conditions: constitutive or UV-induced
[1] = UV-Vis spectra of resatorvid solution in PEG400 on storage; type: physicochemical; conditions: 0.1% w/v in PEG400, 4 days at 25° C.
Description: The solvents that were used were PEG400, EtOH 140 proof, PBS pH 7.4, Acetonitrile, NS, and MeOH. PEG600 was not used as it was too thick. At a concentration of 0.1% w/v it was observed that resatorvid was soluble in PEG400, acetonitrile and EtOH 140 proof and HPLC grade MeOH. 0.01% w/v solutions were also made for some samples to show an acceptable UV-Vis spectra. Resatorvid was not soluble in NS or PBS pH 7.4.
A Molecular Devices® SpectraMax® M3 Multi-Mode Microplate Reader (Sunnyvale, CA, USA) was used to perform UV/Vis spectroscopy. The wavelength range was 190 through 290 nm. A 0.1% w/v solution of TAK-242 in HPLC grade methanol, PEG-400, HPLC grade ethanol, HPLC grade acetonitrile, PBS (pH=7.4) and 0.85% w/v normal saline were made and analyzed under UV visible spectroscopy on a 96-wellplate black clear bottom.

[2] = cited from earlier work
[3] = Direct incorporation of resatorvid powder into cream bases (solubility/compatibility); type: physicochemical; conditions: room temperature 30 minutes to 1 hour
Description: The solubility of the drug as powder was tested on both Dermabase cream as well as PENcream. […] It was a clear indication that the drug would have to be pre-dissolved in a solution before incorporating into the creams.
A variety of cream/lotion formulations were prepared. One gram of Dermabase cream and 0.1 gram of resatorvid were compounded together. […] One gram of PENcream was compounded with 0.1 grams of resatorvid. After compounding the mixture sat for 1 hour at room temp. […] PEG 400 USP and PEG 600 USP at volumes of 0.5 mL, 1 mL and 2 mL were used with 1 gram of cream base. […] PEG 600 USP changed the cream consistency to a lotion for each cream at added volumes 0.5 mL, 1 mL and 2 mL.
(§1) Seven platforms were analyzed for compatibility with TAK-242. The platforms were DermaBASE cream (cream and lotion), PENcream (cream), PEG-400 solution, PG solution, 1% w/v Carbomer 934P resin gel at pH˜7, 2% w/v Sodium hyaluronate gel/serum and 20% w/v Pluronic F127 gel. Solubility of TAK-242 was determined at concentrations ranging from 0.1-5% w/v using PBS (pH=7.41), 0.9% normal saline (NS), HPLC grade ethanol, PEG-400 and PG as solvents. The following step was to test if TAK-242 could be directly incorporated into the platforms mentioned above via non-sterile compounding to determine if the drug would need to be pre-dissolved before incorporation. Determination of how much volume of PEG-400 or PG could be incorporated into the creams and gels without losing consistency while maintaining homogeneity was examined; 1 g of base (cream or gel) was weighed out and was compounded with PEG-400 or PG (500 μL-1000 μL). Drug was then dissolved in appropriate determined volume of compatible solvent and sonicated for 60 minutes, then it was prepared via non-sterile compounding technique and formulations were examined for physical appearance (consistency, homogeneity, visible precipitation, phase separation, compatibility). The only formulation that was different was the Pluronic F127 as everything was mixed in as a liquid at 4° C. and the solution would then solidify at room temperature […] to create the gel which was then mixed thoroughly until homogenous.

[4] = system: UV-induced AP-1 activation; conditions: acetone solution of resatorvid, mouse epidermis; cited from earlier work
[5] = cited from earlier work; remark: listed apart in the source
[6] = system: primary normal epidermal keratinocytes (NHEK); experiment: In vitro cell dose-response (resazurin viability) in 2-D culture, NHEK; type: cell-based, human; conditions: 72 h exposure
Description: (§2) The effects of raw TAK-242 powder on the viability of human representative human keratinocyte cell lines exposed to different concentrations were tested. HaCaT (a human transformed keratinocyte from histologically normal skin cell line) and NHEK (a primary normal epidermal keratinocyte cell line) were used as models of the human epidermis, which express keratinocytes in the stratum basale and then move up the final barrier layer of the skin, which is the stratum corneum. The HaCaT cells were grown in Dulbecco's modified Eagle's medium (DMEM), Optimized 1×, 10% (v/v) fetal bovine serum (FBS), and Pen-Strep (100 units/mL penicillin, 100 μg/mL) in a humidified incubator at 37° C. and 5% CO2. NHEK cells were grown NHEK- growth medium provided by MatTek (Ashland, MA, USA) in a humidified incubator at 37° C. and 5% CO2.
After confluence, HaCaT and NHEK cells were seeded in 96-black well plate at a concentration of 5,000 cells in 100 μL of media per well. After 48 hours, cells were then incubated for 48 h to allow attachment to the surface of the plates. Cells were then exposed to different concentrations of TAK-242. […] Fluorescence intensity of resofurin was detected at 544 nm (excitation) and 590 nm (emission) using the Molecular Devices® SpectraMax® M3 Multi-Mode Microplate Reader (Sunnyvale, CA, USA). The relative viability of the cells was calculated as followed by equation 1: […]

[7] = system: human transformed keratinocytes (HaCaT); experiment: In vitro cell dose-response (resazurin viability) in 2-D culture, HaCaT; type: cell-based; conditions: 72 h exposure
Description: as §2
After confluence, HaCaT and NHEK cells were seeded in 96-black well plate at a concentration of 5,000 cells in 100 μL of media per well. After 48 hours, cells were then incubated for 48 h to allow attachment to the surface of the plates. Cells were then exposed to different concentrations of TAK-242. The drug solutions were prepared by dissolving raw TAK-242 powder in 5% v/v DMSO and DMEM media to make a solution at 1×. A volume of 100 μL of drug solution was added to each well. After 72 h of exposure and incubation at 37° C. and 5% CO2, 20 μL of 20 μM resazurin sodium salt were added to each well and incubated for 4 h. Fluorescence intensity of resofurin was detected at 544 nm (excitation) and 590 nm (emission) using the Molecular Devices® SpectraMax® M3 Multi-Mode Microplate Reader (Sunnyvale, CA, USA). The relative viability of the cells was calculated as followed by equation 1: […]

[8] = Solubility of resatorvid in solvents (sonication, visual observation); type: physicochemical
Description: To determine solubility of resatorvid in a liquid formulation, a variety of solvents were tested: phosphate buffered saline, NS, ethanol, and PEG400, all with resatorvid at a concentration of 0.1% w/v and the solutions were sonicated for 1 hour at room temperature.
In addition, a solution of 5% w/v resatorvid in EtOH 140 proof was prepared (1 mL of ETOH and 50 mg of resatorvid). The solution was not translucent and became opaque/cloudy and there was still drug undissolved floating around.
Solutions were made with w/v TAK242+PEG600 and 5% w/v TAK242+100% Acetone. All three solutions were sonicated at room temperature for 1 hour. […] As the solution began to adjust to ambient temperature it started to solidify into a white thick substance almost like lard.
Further experiments were conducted using glycerol as the solvent. 0.0504 g of TAK-242 was weighed out to make a 5.04% w/v solution in 1 mL of glycerol, USP grade. […]. The solution was then sonicated for 60 minutes at 37° C. […] Images were taken at each to document the outcome.
A 5% w/v solution of resatorvid (50mg) and PEG 400 USP (1 mL) was prepared.
as §1

[9] = In vitro oil-water partitioning coefficient (Log-P), 1-octanol/PBS; type: physicochemical; conditions: for logP: 1-octanol/PBS; for partition coefficient (Log-P): range over pH 6.5, 7.1, 8.8
Description: TAK242 raw powder was weighed out (0.003 g) and placed in 2 dram ambered colored glass vials containing equal volumes (1.5 mL) of 1-octanol and PBS (1×, pH=7.4). Various solutions were made, and pH was adjusted and maintained at 6.5, 7.1, 8.8, adjustments were made using 0.1 M HCl solution and 0.1 M NaOH solution. […] The vials were rotated using a Barnstead/Thermolyne Labquake shaker (Dubuque, IA, USA) for 24 hours and then left undisturbed in a vertical position for an additional 24 hours for phase separation between the aqueous and non-aqueous layers. A sample of each layer was carefully withdrawn and then analyzed by a validated HPLC method as describe in the HPLC analysis section under methods.

[10] = cited from earlier work; remark: listed apart in the source
[11] = series of increasing concentrations

CCOC(=O)C1=CCCC[C@H]1S(=O)(=O)Nc1ccc(F)cc1Cl [Resatorvid]
p-p38 signal (p-p38 signal in EpiDerms): potently blocked
stability of drug in solution (UV-VIS spectra) [1]: no changes in the drug
reported solubility ([2]; in DMSO): 10 mg/mL
reported solubility ([2]; in EtOH): 20 mg/mL
reported solubility ([2]; in H2O): sparingly soluble
solubility of drug powder in cream ([3]; Dermabase cream): unable to dissolve in the cream
solubility of drug powder in cream ([3]; Dermabase cream, listed as Resatorvid (TAK-242)): undissolved and incompatible with creams
solubility of drug powder in cream ([3]; PENcream): undissolved drug
solubility of drug powder in cream ([3]; PENcream, listed as Resatorvid (TAK-242)): undissolved and incompatible with creams
UV-induced AP-1 activation [4]: blocked
reported Log P [5]: 2.53
% cell viability ([6]; all concentrations): ~100%
toxicity [6, 11]: did not show any significant toxicity
% cell viability ([7]; 1000 μM): ~70%
% cell viability ([7]; all concentrations except 1000 μM): ~100%
toxicity [7, 11]: did not show any significant toxicity
solubility ([8]; 0.1% w/v in EtOH 140 proof): soluble
solubility ([8]; 0.1% w/v in EtOH 140 proof, listed as TAK-242): completely dissolved
solubility ([8]; 0.1% w/v in HPLC grade MeOH): soluble
solubility ([8]; 0.1% w/v in NS (normal saline)): not soluble
solubility ([8]; 0.1% w/v in NS (normal saline), listed as TAK-242): failed to dissolve
solubility ([8]; 0.1% w/v in PBS pH 7.4): not soluble
solubility ([8]; 0.1% w/v in PBS pH 7.4, listed as TAK-242): failed to dissolve
solubility ([8]; 0.1% w/v in PEG400): soluble
solubility ([8]; 0.1% w/v in acetonitrile): soluble
solubility ([8]; 5% w/v in 100% acetone, sonicated at room temperature 1 hour): dissolved the drug completely
solubility ([8]; 5% w/v in EtOH 140 proof): only partially dissolved
solubility ([8]; 5% w/v in PEG 400 USP): no signs of undissolved drug
solubility ([8]; glycerol USP, 5.04%, 2.5%, 1.25% and 0.625% w/v, sonicated 60 minutes at 37° C.): did not dissolve
solubility ([8]; w/v in PEG600 (concentration not given), sonicated at room temperature 1 hour): dissolved the drug completely
logP ([9]; as quoted, conditions not stated, read-out: log P): 1.54
logP ([9]; pH 6.5, At 35° C., pH = 6.5, read-out: Experimental (Log P) Average ± SD): 1.65 ± 0.029
logP ([9]; pH 6.5, At Room temperature/ambient temperature, pH = 6.5, read-out: Experimental (Log P) Average ± SD): 1.58 ± 0.019
logP ([9]; pH 7.1, At 35° C., pH = 7.1, read-out: Experimental (Log P) Avg. Log-P ± SD): 1.68 ± 0.013
logP ([9]; pH 7.1, At Room temperature/ambient temperature, pH = 7.1, read-out: Experimental (Log P) Avg. Log-P ± SD): 1.54 ± 0.149
logP ([9]; pH 8.8, At 35° C., pH = 8.8, read-out: Experimental (Log P) Avg. Log-P ± SD): 0.94 ± 0.023
logP ([9]; pH 8.8, At Room temperature/ambient temperature, pH = 8.8, read-out: Experimental (Log P) Avg. Log-P ± SD): 0.88 ± 0.06
partition coefficient (Log-P) ([9]; at 35° C.): 0.94-1.68
partition coefficient (Log-P) ([9]; at 37° C.): 0.88-1.58
experimentally determined pKa reported [10]: 8.0-8.1
